The text below walks through data of PMC5311937, “In Vitro Characterization and Concerted Function of Three Core Enzymes of a Glycyl Radical Enzyme - Associated Bacterial Microcompartment” (Scientific Reports, 2017).

Experiment [1] has as its target T1, AldDH (acylating aldehyde dehydrogenase, PduP) (Rhodopseudomonas palustris, UniProt Q21A49).
T1 construct: gene RPC_1174; N-terminal encapsulation peptide kept
The experiment can be described thus: X-ray crystal structure, […] Å. Particulars: active site, acylated enzyme (Cys330 S-propionylated from propionyl-CoA); crystals at pH 8.1. It is filed as binding.

In experiment [2] the target is T1, AldDH (acylating aldehyde dehydrogenase, PduP). The experiment can be described thus: X-ray crystal structure, […] Å. Format: binding. Particulars: active site; pH 4.8, 5 mM NAD+.
The target is the same in experiment [3]. The experiment can be described thus: NAD+ reduction monitored at […] nm. Particulars: 5 mM NAD+, 0.5 mM CoA, 200 mM MOPS/KOH pH 7.5; kcat per tetrameric enzyme; read-out: apparent KM. It is filed as biochemical.
Experiment [4] has the same target. The experiment can be described thus: X-ray crystal structure, […] Å. Particulars: active site; propionyl-CoA or CoA fitted; pH 4.8; also in one site of 5JFN, where Cys330 is S-propionylated (covalent). It is filed as binding.
In experiment [5] the target is acylating aldehyde dehydrogenase (AldDH) from Rhodopseudomonas palustris BisB18, Strep-tagged (Rhodopseudomonas palustris BisB18). The experiment can be described thus: SEC; gel filtration on HiLoad 16/600 Superdex 200 pg, 20 mM MOPS/KOH pH 7.5, 50 mM KCl. Background: In gel filtration, larger molecules generally elute earlier.
Experiment [6] has the same target. The experiment can be described thus: crystal structure; AldDH co-crystallised with propionyl-CoA at pH 4.8, space group P 1, 2.5 Å.
The target is the same in experiment [7]. The experiment can be described thus: crystal structure; AldDH co-crystallised with propionyl-CoA at pH 8.1, space group P 2_(1), 1.9 Å; CoA and S-propionylcysteine in the active sites.
Experiment [8] has the same target. The experiment can be described thus: crystal structure; AldDH co-crystallised with NAD+ at pH 4.8, space group P2_(1), 2.3 Å, twinned.

T1 sequence (Q21A49 entry or part of it): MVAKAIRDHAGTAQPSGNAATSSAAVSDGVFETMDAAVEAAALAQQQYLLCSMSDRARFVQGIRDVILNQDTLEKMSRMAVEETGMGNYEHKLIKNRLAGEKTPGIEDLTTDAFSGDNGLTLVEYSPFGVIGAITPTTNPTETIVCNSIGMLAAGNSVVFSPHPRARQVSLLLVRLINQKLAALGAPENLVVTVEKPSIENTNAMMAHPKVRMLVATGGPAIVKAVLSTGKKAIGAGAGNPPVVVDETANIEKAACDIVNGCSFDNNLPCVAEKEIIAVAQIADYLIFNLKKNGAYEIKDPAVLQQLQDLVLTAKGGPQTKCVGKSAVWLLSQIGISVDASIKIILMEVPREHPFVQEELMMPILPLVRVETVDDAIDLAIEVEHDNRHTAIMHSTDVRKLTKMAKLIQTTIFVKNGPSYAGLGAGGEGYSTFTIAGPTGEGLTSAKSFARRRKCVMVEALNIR

As for `CC(C)(COP(=O)(O)OP(=O)(O)OC[C@H]1O[C@@H](n2cnc3c(N)ncnc32)[C@H](O)[C@@H]1OP(=O)(O)O)[C@@H](O)C(=O)NCCC(=O)NCCS` [CoA], the “X-ray crystal structure, 1.90 Å” value in experiment [1] was “In three of the four active sites of the tetramer we also found coenzyme A bound”. For `NC(=O)c1ccc[n+]([C@@H]2O[C@H](COP(=O)(O)OP(=O)(O)OC[C@H]3O[C@@H](n4cnc5c(N)ncnc54)[C@H](O)[C@@H]3O)[C@@H](O)[C@H]2O)c1` [NAD^+], in experiment [2], the “X-ray crystal structure, 2.30 Å” value is reported as “Electron density in the active sites allowed the fitting of NAD^+”. Turning to `CCC=O` [propionaldehyde], the Km in experiment [3] was 1200 ± 170 µM. Consider `CCC(=O)SCCNC(=O)CCNC(=O)[C@H](O)C(C)(C)COP(=O)(O)OP(=O)(O)OC[C@H]1O[C@@H](n2cnc3c(N)ncnc32)[C@H](O)[C@@H]1OP(=O)(O)O` [propionyl-CoA], for which the “X-ray crystal structure, 2.52 Å” value in experiment [4] is listed as “we found electron density that allowed the fitting of either propionyl-CoA or CoA”.

As for “acylating aldehyde dehydrogenase (AldDH) from Rhodopseudomonas palustris BisB18, Strep-tagged (enzyme)”, the stoichiometry N in experiment [5], in experiment [6], in experiment [7] and in experiment [8] was 4 in each case.

By Km is commonly meant the substrate concentration at which the rate is half of its maximum. In general, stoichiometry N refers to the number of molecules, sites or subunits per partner or assembly.
